Source: patent US20260297092A1, “PYRAZOLOPYRIMIDINE DERIVATIVES AS INHIBITORS OF NLRP3” (Takeda Pharmaceutical Company Limited, priority 2023, published 2026)

Assays:
[1] = system: NLRP3 inflammasome (IL-1β production in THP-1 cells); assay: IL-1β TR-FRET Assay (percentage of inhibition at 300 nM, 6 μM or 10 μM); assay type: cell-based, human; conditions: Homo sapiens, LPS priming, ATP activation; for inhibition at 6 µM: THP-1, 6 μM, read-out: IL-1β inhibitory rate at 6 μM (%); for inhibition at 0.3 µM: THP-1, 300 nM, read-out: IL-1β inhibitory rate at 300 nM (%)
Method in brief: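 THP-1 cells were differentiated with 25 ng/mL IFN-γ for 24 h, primed with 50 ng/mL LPS in serum-free medium for 24 h, then given compound for 30 min before 20 mM ATP for 2 h. Supernatant IL-1β was measured by HTRF after 16-24 h at room temperature. Inhibition was normalized between DMSO (high) and 3 μM MCC-950 (low).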

[2] = system: TNF-α (NF-κB pathway, THP-1 cells); assay: TNF-α Assay (IC50); assay type: cell-based, human; conditions: Homo sapiens, 600 ng/mL LPS, 3 hours
Method in brief: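 THP-1 cells differentiated to macrophages with 25 ng/mL IFN for 24 h, plated 40,000/well in serum-free medium, preincubated with compounds 30 min at 37 °C, then stimulated with 600 ng/mL LPS for 3 h. Supernatant TNF-α measured by ELISA; IC50 from four-parameter logistic fit, 100% inhibition defined by TPCA-1.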

SMILES | IC50 [2] [µM] | inhibition at 6 µM [1] [%] | inhibition at 0.3 µM [1] [%]
Cc1cc(C2CC2)cc(C)c1-n1cc2c(=O)[nH]c(O[C@@H]3CCOC3)nc2n1 [Example 293, 2-(4-cyclopropyl-2,6-dimethylphenyl)-6-{[(3R)-oxolan-3-yl]oxy}-2,5-dihydro-4H-pyrazolo[3,4-d]pyrimidin-4-one] | > 30 | 99 | 
CCOc1nc2nn(-c3c(O)cc(C)cc3C3CC3)cc2c(=O)[nH]1 [Example 11, 2-(2-cyclopropyl-6-hydroxy-4-methylphenyl)-6-ethoxy-2,5-dihydro-4H-pyrazolo[3,4-d]pyrimidin-4-one] | > 30 |  | 99
COc1nc2nn(-c3c(C)cc(C)cc3O)cc2c(=O)[nH]1 [Example 3, 2-(2-hydroxy-4,6-dimethylphenyl)-6-methoxy-2,5-dihydro-4H-pyrazolo[3,4-d]pyrimidin-4-one] | > 30 |  | 94
Cc1cc(C)c(-n2cc3c(=O)[nH]c(-c4ccncn4)nc3n2)c(O)c1 [Example 2, 2-(2-hydroxy-4,6-dimethylphenyl)-6-(pyrimidin-4-yl)-2,5-dihydro-4H-pyrazolo[3,4-d]pyrimidin-4-one] | > 30 |  | 100
CCOc1nc2nn(-c3c(F)cc(C4CC4)cc3C(O)C(F)(F)F)cc2c(=O)[nH]1 (racemic) [Example 192, 2-[4-cyclopropyl-2-fluoro-6-(2,2,2-trifluoro-1-hydroxyethyl)phenyl]-6-ethoxy-2,5-dihydro-4H-pyrazolo[3,4-d]pyrimidin-4-one] | > 30 |  | 95
Cc1cc(C2CC2)cc(C)c1-n1cc2c(=O)[nH]c(C3CC3)nc2n1 [Example 167, 6-cyclopropyl-2-(4-cyclopropyl-2,6-dimethylphenyl)-2,5-dihydro-4H-pyrazolo[3,4-d]pyrimidin-4-one] | > 30 |  | 98
Cc1cc(C)c(-n2cc3c(=O)[nH]c(OCC(C)(F)F)nc3n2)c(O)c1 [Example 42, 6-(2,2-difluoropropoxy)-2-(2-hydroxy-4,6-dimethylphenyl)-2,5-dihydro-4H-pyrazolo[3,4-d]pyrimidin-4-one] | > 30 |  | 97
CCOc1nc2nn(-c3c(C)cc(C4CC4)cc3C)cc2c(=O)[nH]1 [Example 132, 2-(4-cyclopropyl-2,6-dimethylphenyl)-6-ethoxy-2,5-dihydro-4H-pyrazolo[3,4-d]pyrimidin-4-one] | > 30 |  | 99
Cc1cc(C2CC2)cc(C)c1-n1cc2c(=O)[nH]c(COC(F)(F)F)nc2n1 [Example 202, 2-(4-cyclopropyl-2,6-dimethylphenyl)-6-[(trifluoro-methoxy)methyl]-2,5-dihydro-4H-pyrazolo[3,4-d]pyrimidin-4-one] | > 30 |  | 97
CCOc1nc2nn(-c3ncc(C4CC4)cc3C)cc2c(=O)[nH]1 [Example 154, 2-(5-cyclopropyl-3-methylpyridin-2-yl)-6-ethoxy-2,5-dihydro-4H-pyrazolo[3,4-d]pyrimidin-4-one] | > 30 |  | 93
CCc1nc2nn(-c3c(C)cc(C4CC4)cc3C)cc2c(=O)[nH]1 [Example 241, 2-(4-cyclopropyl-2,6-dimethylphenyl)-6-ethyl-2,5-dihydro-4H-pyrazolo[3,4-d]pyrimidin-4-one] | > 30 | 101 | 
Cc1cc(C2CC2)cc(C)c1-n1cc2c(=O)[nH]c(C3(F)CC3)nc2n1 [Example 190, 2-(4-cyclopropyl-2,6-dimethylphenyl)-6-(1-fluorocyclopropyl)-2,5-dihydro-4H-pyrazolo[3,4-d]pyrimidin-4-one] | > 30 |  | 97
Cc1cc(C)c(-n2cc3c(=O)[nH]c(-c4cccn(C)c4=O)nc3n2)c(O)c1 [Example 66, 2-(2-hydroxy-4,6-dimethylphenyl)-6-(1-methyl-2-oxo-1,2-dihydropyridin-3-yl)-2,5-dihydro-4H-pyrazolo[3,4-d]pyrimidin-4-one] | > 30 |  | 97
CCOc1nc2nn(-c3c(F)cc(C4CC4)cc3C(F)F)cc2c(=O)[nH]1 [Example 110, 2-[4-cyclopropyl-2-(difluoromethyl)-6-fluorophenyl]-6-ethoxy-2,5-dihydro-4H-pyrazolo[3,4-d]pyrimidin-4-one] | > 30 |  | 99
CCOc1nc2nn(-c3c(F)cc(OC(F)F)cc3C(F)F)cc2c(=O)[nH]1 [Example 163, 2-[4-(difluoromethoxy)-2-(difluoromethyl)-6-fluorophenyl]-6-ethoxy-2,5-dihydro-4H-pyrazolo[3,4-d]pyrimidin-4-one] | > 30 |  | 97
CCOc1nc2nn(-c3ccc(C)cc3OC(F)F)cc2c(=O)[nH]1 [Example 83, 2-[2-(difluoromethoxy)-4-methylphenyl]-6-ethoxy-2,5-dihydro-4H-pyrazolo[3,4-d]pyrimidin-4-one] | > 30 |  | 99
CCOc1nc2nn(-c3c(C)cc(OC)cc3Br)cc2c(=O)[nH]1 [Example 143, 2-(2-bromo-4-methoxy-6-methylphenyl)-6-ethoxy-2,5-dihydro-4H-pyrazolo[3,4-d]pyrimidin-4-one] | > 30 |  | 93
CCOc1nc2nn(-c3c(C)cc(Br)cc3-n3cccn3)cc2c(=O)[nH]1 [Example 144, 2-[4-bromo-2-methyl-6-(1H-pyrazol-1-yl)phenyl]-6-ethoxy-2,5-dihydro-4H-pyrazolo[3,4-d]pyrimidin-4-one] | > 30 |  | 96
COCc1nc2nn(-c3c(C)cc(C)cc3O)cc2c(=O)n1C [Example 8, 2-(2-hydroxy-4,6-dimethylphenyl)-6-(methoxymethyl)-5-methyl-2,5-dihydro-4H-pyrazolo [3,4-d]pyrimidin-4-one] | > 30 |  | 92
Cc1cc(C)c(-n2cc3c(=O)[nH]c(OC(C)C(F)(F)F)nc3n2)c(O)c1 (stereo not drawn) [Example 43, 2-(2-hydroxy-4,6-dimethylphenyl)-6-[(1,1,1-trifluoropropan-2-yl)oxy]-2,5-dihydro-4H-pyrazolo[3,4-d]pyrimidin-4-one] | > 30 |  | 98

More lines, main results first:

IC50 [2] [µM] | SMILES | inhibition at 6 µM [1] [%] | inhibition at 0.3 µM [1] [%]
> 30 | Cc1cc(C)c(-n2cc3c(=O)[nH]c(C4(C)CCCCO4)nc3n2)c(O)c1 (stereo not drawn) [Example 90, 2-(2-hydroxy-4,6-dimethylphenyl)-6-(2-methyloxan-2-yl)-2,5-dihydro-4H-pyrazolo[3,4-d]pyrimidin-4-one] |  | 85
> 30 | CCOc1nc2nn(-c3ncc(C4CC4)cc3C(F)(F)F)cc2c(=O)[nH]1 [Example 153, 2-[5-cyclopropyl-3-(trifluoromethyl)pyridin-2-y]-6-ethoxy-2,5-dihydro-4H-pyrazolo[3,4-d]pyrimidin-4-one] |  | 101
> 30 | COc1nc2nn(-c3c(C)cc(Br)cc3C(F)F)cc2c(=O)[nH]1 [Example 214, 2-[4-bromo-2-(difluoromethyl)-6-methylphenyl]-6-methoxy-2,5-dihydro-4H-pyrazolo[3,4-d]pyrimidin-4-one] |  | 107
> 30 | CO[C@@H]1COCC[C@@H]1c1nc2nn(-c3c(C)cc(C4CC4)cc3C)cc2c(=O)[nH]1 (racemic) [Example 310, racemic mixture of 1,5-anhydro-3-[2-(4-cyclopropyl-2,6-dimethylphenyl)-4-oxo-4,5-dihydro-2H-pyrazolo[3,4-d]pyrimidin-6-yl]-2,3-dideoxy-4-O-methyl-D-erythro-pentitol and 1,5-anhydro-3-[2-(4-cyclopropyl-2,6-dimethylphenyl)-4-oxo-4,5-dihydro-2H-pyrazolo[3,4-d]pyrimidin-6-yl]-3,4-dideoxy-2-O-methyl-D-erythro-pentitol] | 99 | 
> 30 | CCOc1nc2nn(-c3c(Br)cc(C4CC4)cc3COC)cc2c(=O)[nH]1 [Example 155, 2-[2-bromo-4-cyclopropyl-6-(methoxymethyl)phenyl]-6-ethoxy-2,5-dihydro-4H-pyrazolo[3,4-d]pyrimidin-4-one] |  | 99
> 30 | Cc1cc(C)c(-n2cc3c(=O)[nH]c(-c4ccnc(C)n4)nc3n2)c(O)c1 [Example 15, 2-(2-hydroxy-4,6-dimethylphenyl)-6-(2-methylpyrimidin-4-yl)-2,5-dihydro-4H-pyrazolo [3,4-d]pyrimidin-4-one] |  | 99
> 30 | CCOc1nc2nn(-c3c(F)cc(C4CC4)cc3C(F)(F)F)cc2c(=O)[nH]1 [Example 117, 2-[4-cyclopropyl-2-fluoro-6-(trifluoromethyl)phenyl]-6-ethoxy-2,5-dihydro-4H-pyrazolo[3,4-d]pyrimidin-4-one] |  | 100
> 30 | CCOc1nc2nn(-c3c(F)cc(C)cc3Br)cc2c(=O)[nH]1 [Example 57, 2-(2-bromo-6-fluoro-4-methylphenyl)-6-ethoxy-2,5-dihydro-4H-pyrazolo[3,4-d]pyrimidin-4-one] |  | 99
> 30 | CCOc1nc2nn(-c3c(C)cc(C(F)(F)F)cc3F)cc2c(=O)[nH]1 [Example 64, 6-ethoxy-2-[2-fluoro-6-methyl-4-(trifluoromethyl)phenyl]-2,5-dihydro-4H-pyrazolo[3,4-d]pyrimidin-4-one] |  | 100
> 30 | CCOc1nc2nn(-c3c(C)cc(F)cc3F)cc2c(=O)[nH]1 [Example 126, 2-(2,4-difluoro-6-methylphenyl)-6-ethoxy-2,5-dihydro-4H-pyrazolo[3,4-d]pyrimidin-4-one] |  | 51
